Measured values published in patent publication US20140135310A1, “SULPHONAMIDE DERIVATIVES OF ALICYCLIC AMINES FOR THE TREATMENT OF CENTRAL NERVOUS SYSTEM DISEASES” (Adamed Sp. z o.o., priority 2011, published 2014).

Assays:
[1] = target: dopaminergic receptors D2 (Homo sapiens, UniProt P14416); assay: Radioligand binding assay, dopaminergic D2 receptors; conditions: binding assay, test compound 1×10^−6 M
Outline: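 Ki from Cheng–Prusoff conversion of Hill-fitted IC50 values, using the assay radioligand concentration and a Scatchard-determined KD. Specific binding, scintillation-counted, excluded signal remaining under excess unlabelled ligand.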

[2] = target: dopaminergic receptors D3 (Homo sapiens, UniProt P35462); assay: Radioligand binding assay, dopaminergic D3 receptors; conditions: test compound 1×10^−6 M
Outline: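 Scintillation read-out. Specific = total − nonspecific (excess cold ligand). Data as % of control specific binding / % inhibition; IC50 by Hill fit; Ki = IC50/(1+L/KD), KD from Scatchard plot.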

[3] = target: T1, serotonin transporter (SERT) (Homo sapiens, UniProt P31645); assay: Radioligand binding assay, serotonin transporter (SERT); conditions: binding assay, test compound 1×10^−6 M
T1 construct: expressed in transfected cells; host or cells: CHO cells
Outline: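 Values are derived from competition curves fitted by the Hill equation to give IC50, then converted to Ki by Cheng-Prusoff with radioligand Kd from Scatchard analysis. Specific binding equals total minus non-specific (excess cold ligand), counted by scintillation, and is also expressed as percent inhibition of control.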

5-HT2A receptor = target: T2, 5-HT2A receptor (Homo sapiens, UniProt P28223); assay: Radioligand binding assay, serotoninergic 5-HT2A receptors; conditions: binding assay result in %, Table 5a
T2 construct: purchased PerkinElmer
Outline: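 Competition curves from scintillation-counted specific binding (total minus binding with excess unlabelled ligand) were Hill-fitted to give IC50, converted to Ki via Cheng-Prusoff using Scatchard-derived Kd.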

[4] = system: α1 adrenergic receptors (rat cerebral cortex); assay: Radioligand binding assay, adrenergic α1 receptors; conditions: test compound 1×10^−6 M
Outline: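 Values derive from radioligand displacement, with non-specific binding defined by excess cold ligand and detection by scintillation. Hill-fit IC50s were converted to Ki via Cheng-Prusoff using Scatchard-derived Kd; percent inhibition of control specific binding also reported.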

5-HT6 receptor = target: T3, 5-HT6 receptor (Homo sapiens, UniProt P50406); assay: Radioligand binding assay, serotoninergic 5-HT6 receptors; conditions: binding assay result in %, Table 5a;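 note: test compound at 1 µM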
T3 construct: purchased PerkinElmer
Outline: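 Values are Ki from Cheng–Prusoff, taking IC50 from Hill nonlinear regression of competition curves and KD from a Scatchard plot. Specific binding was total minus binding with excess unlabelled ligand. Radioligand displacement was detected by scintillation counting, and data were also reported as percent of control specific binding.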

5-HT7 receptor = target: T4, 5-HT7 receptor (Homo sapiens, UniProt P34969); assay: Radioligand binding assay, serotoninergic 5-HT7 receptors; conditions: binding assay result in %, Table 5a;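 note: test compound at 1 µM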
T4 construct: purchased PerkinElmer
Outline: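 Ki values used the Cheng–Prusoff equation, with KD from Scatchard analysis, applied to IC50 from Hill fits of human 5-HT7 radioligand competition curves. Bound radioligand was counted by scintillation, and excess unlabelled ligand set the non-specific binding.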

[5] = target: T5, 5-HT1A receptor (rat hippocampus) (Rattus norvegicus, UniProt P19327); assay: Radioligand binding assay, serotoninergic 5-HT1A receptors; conditions: binding assay result in %, Table 5a;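 note: test compound at 1 µM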
T5 construct: hippocampus; from tissue; host or cells: rat hippocampus
T5 sequence (P19327 1-422): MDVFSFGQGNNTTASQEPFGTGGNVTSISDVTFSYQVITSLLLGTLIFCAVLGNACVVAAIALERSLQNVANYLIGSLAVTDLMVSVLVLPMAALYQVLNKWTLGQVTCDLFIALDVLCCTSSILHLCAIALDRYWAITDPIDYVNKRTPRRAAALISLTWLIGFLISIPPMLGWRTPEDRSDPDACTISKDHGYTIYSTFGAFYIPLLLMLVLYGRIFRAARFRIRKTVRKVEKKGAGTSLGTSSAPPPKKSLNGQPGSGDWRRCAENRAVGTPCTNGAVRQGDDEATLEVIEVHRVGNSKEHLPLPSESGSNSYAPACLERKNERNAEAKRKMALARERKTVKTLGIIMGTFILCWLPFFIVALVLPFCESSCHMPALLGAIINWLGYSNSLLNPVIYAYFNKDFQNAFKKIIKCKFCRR

Chain of dopaminergic receptors D2 (P14416 whole entry): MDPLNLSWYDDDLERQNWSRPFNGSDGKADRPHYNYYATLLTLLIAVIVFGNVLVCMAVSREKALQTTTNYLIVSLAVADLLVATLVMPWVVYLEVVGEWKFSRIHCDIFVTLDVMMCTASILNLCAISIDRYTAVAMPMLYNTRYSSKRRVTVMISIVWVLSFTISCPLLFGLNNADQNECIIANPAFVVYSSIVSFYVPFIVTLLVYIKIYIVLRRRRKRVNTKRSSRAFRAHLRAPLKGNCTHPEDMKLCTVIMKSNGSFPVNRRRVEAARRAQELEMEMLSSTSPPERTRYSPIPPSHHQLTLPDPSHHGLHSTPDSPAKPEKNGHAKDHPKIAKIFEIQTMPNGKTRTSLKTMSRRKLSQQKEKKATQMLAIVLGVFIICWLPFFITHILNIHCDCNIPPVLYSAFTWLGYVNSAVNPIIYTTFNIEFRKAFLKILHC
Chain of dopaminergic receptors D3 (P35462 whole entry): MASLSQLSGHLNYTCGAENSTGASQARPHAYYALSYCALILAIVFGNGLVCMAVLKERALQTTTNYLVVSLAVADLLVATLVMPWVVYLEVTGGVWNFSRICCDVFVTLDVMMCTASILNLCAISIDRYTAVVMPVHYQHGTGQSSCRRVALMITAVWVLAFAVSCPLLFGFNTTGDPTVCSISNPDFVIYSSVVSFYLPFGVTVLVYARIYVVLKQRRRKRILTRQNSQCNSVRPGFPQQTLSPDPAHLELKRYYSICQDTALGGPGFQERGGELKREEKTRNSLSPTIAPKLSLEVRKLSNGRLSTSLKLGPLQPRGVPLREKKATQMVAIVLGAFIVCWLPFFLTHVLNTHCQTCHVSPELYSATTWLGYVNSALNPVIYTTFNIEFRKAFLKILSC
T1 sequence (P31645 whole entry): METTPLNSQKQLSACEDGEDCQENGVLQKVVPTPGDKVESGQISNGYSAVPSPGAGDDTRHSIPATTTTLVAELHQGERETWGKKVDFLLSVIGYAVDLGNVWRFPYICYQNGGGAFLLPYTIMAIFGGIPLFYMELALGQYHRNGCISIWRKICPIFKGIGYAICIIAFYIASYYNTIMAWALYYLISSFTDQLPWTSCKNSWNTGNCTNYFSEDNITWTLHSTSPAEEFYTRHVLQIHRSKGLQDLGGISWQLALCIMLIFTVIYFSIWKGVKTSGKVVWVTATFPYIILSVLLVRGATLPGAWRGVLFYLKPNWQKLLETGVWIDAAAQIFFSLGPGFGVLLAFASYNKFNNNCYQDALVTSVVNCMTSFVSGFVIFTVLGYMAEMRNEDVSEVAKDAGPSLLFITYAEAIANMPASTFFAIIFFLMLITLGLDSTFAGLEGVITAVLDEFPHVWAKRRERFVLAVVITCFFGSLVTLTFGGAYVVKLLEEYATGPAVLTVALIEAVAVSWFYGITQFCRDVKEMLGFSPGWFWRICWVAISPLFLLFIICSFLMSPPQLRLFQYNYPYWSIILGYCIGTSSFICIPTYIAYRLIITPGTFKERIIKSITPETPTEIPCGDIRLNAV
T4 sequence (P34969 whole entry): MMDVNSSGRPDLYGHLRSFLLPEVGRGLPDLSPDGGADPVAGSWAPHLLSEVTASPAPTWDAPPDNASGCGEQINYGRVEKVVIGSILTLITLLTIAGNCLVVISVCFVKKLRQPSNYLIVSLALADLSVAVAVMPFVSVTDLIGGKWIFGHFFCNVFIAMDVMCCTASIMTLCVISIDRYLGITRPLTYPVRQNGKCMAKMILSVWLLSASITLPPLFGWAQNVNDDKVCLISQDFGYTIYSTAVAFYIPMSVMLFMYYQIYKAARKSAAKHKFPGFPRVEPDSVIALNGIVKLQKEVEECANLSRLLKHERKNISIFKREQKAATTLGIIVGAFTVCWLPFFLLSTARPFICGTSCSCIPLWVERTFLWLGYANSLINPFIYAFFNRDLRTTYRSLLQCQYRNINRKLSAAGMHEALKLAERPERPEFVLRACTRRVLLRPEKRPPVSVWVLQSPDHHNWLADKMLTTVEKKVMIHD
T2 sequence (P28223 whole entry): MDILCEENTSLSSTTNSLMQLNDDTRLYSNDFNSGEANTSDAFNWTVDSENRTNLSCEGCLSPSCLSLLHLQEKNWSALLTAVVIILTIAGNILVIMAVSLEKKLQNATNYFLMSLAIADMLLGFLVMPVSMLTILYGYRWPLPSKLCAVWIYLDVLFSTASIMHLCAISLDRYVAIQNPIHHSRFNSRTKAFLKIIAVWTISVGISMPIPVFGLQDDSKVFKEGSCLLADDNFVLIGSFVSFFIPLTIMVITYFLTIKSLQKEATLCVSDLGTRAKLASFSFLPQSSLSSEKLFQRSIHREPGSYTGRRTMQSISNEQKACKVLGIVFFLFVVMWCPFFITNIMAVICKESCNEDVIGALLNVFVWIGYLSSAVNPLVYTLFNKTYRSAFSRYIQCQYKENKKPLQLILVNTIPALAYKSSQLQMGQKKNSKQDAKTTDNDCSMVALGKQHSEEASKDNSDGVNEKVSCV
T3 sequence (P50406 whole entry): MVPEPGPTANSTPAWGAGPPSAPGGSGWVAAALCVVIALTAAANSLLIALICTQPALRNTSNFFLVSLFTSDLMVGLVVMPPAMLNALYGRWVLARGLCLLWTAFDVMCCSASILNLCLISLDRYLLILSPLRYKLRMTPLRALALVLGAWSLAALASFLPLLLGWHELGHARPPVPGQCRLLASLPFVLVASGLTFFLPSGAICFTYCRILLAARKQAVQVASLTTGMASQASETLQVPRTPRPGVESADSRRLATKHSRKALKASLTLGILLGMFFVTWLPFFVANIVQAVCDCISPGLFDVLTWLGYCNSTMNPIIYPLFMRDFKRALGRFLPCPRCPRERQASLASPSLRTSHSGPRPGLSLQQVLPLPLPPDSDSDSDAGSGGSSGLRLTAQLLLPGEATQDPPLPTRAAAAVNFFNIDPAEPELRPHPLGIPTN

Row | SMILES | D2 [%] [1] | D3 [%] [2] | SERT [%] [3] | 5-HT2A [%] (5-HT2A receptor) | α1 [%] [4] | 5-HT6 [%] (5-HT6 receptor) | 5-HT7 [%] (5-HT7 receptor) | 5-HT1A [%] [5] | inhibition at 1 µM [1] | inhibition at 1 µM [2] | inhibition at 1 µM [3] | inhibition at 1 µM (5-HT2A receptor) | inhibition at 1 µM (5-HT6 receptor) | inhibition at 1 µM (5-HT7 receptor) | inhibition at 1 µM [5]
1 | O=S(=O)(NC1CCN(CCOc2cccc3ccccc23)CC1)c1ccc2ccccc2c1 [Compound 120, N-[1-[2-(1-Naphthyloxy)ethyl]-4-piperidine]naphthalene-2-sulphonamide] | −33% | 30% | 21% | 68% | −9% | 24% | 89% | 8% | – | – | – | – | – | – | –
2 | Cn1ccc2c(S(=O)(=O)NCC3CN(CCOc4cccc5c4OCCO5)C3)cccc21 [Compound 188, N-[[1-[2-(2,3-Dihydro-1,4-benzodioxin-5-yloxy)ethyl]azetidin-3-yl]methyl]-1-methyl-indole-4-sulphonamide] | – | – | – | – | 91% | – | – | – | 52% | 51% | 44% | 89% | 14% | 91% | 101%
3 | Cc1c(S(=O)(=O)NCC2CN(CCOc3cccc4ccccc34)C2)sc2ccc(Cl)cc12 [Compound 167, 5-Chloro-3-methyl-N-[[1-[2-(1-naphthyloxy)ethyl]azetidin-3-yl]methyl]benzothiophene-2-sulphonamide] | – | – | – | – | 3% | – | – | – | 60% | 97% | 31% | 95% | 94% | 90% | 75%
4 | O=S(=O)(NCC1CCN(CCOc2cccc3ccccc23)C1)c1cccc2ccccc12 (stereo not shown) [Compound 273, N-[[1-[2-(1-Naphthyloxy)ethyl]pyrrolidin-3-yl]methyl]naphthalene-1-sulphonamide] | – | – | – | – | 25% | – | – | – | 58% | 90% | 64% | 95% | 90% | 77% | 85%
5 | O=S(=O)(NCC1CCN(CCOc2cccc3c2OCCO3)C1)c1ccc(Cl)s1 (stereo not shown) [Compound 316, 5-Chloro-N-[[1-[2-(2,3-dihydro-1,4-benzodioxin-5-yloxy)ethyl]pyrrolidin-3-yl]-methyl]thiophene-2-sulphonamide] | – | – | – | – | 66% | – | – | – | -2% | 36% | 8% | 82% | 36% | 87% | 74%
6 | O=S(=O)(NC1CCN(CCOc2cccc3c2OCCO3)C1)c1ccc2ccccc2c1 (stereo not shown) [Compound 99, N-[1-[2-(2,3-Dihydro-1,4-benzodioxan-8-yloxy)ethyl]pyrrolidin-3-yl]-naphthalene-2-sulphonamide] | 38% | 78% | 36% | 97% | 70% | 64% | 90% | 96% | – | – | – | – | – | – | –
7 | O=S(=O)(NCC1CN(CCOc2cccc3c2OCCO3)C1)c1ccc(-c2ccccc2)cc1 [Compound 178, N-[[1-[2-(2,3-Dihydro-1,4-benzodioxin-5-yloxy)ethyl]azetidin-3-yl]methyl]-4-phenyl-benzenesulphonamide] | – | – | – | – | 20% | – | – | – | 8% | 25% | -6% | 73% | 21% | 89% | 96%
8 | O=S(=O)(NC1CCN(CCCc2c[nH]c3ccc(Cl)cc23)C1)c1ccccc1 (stereo not shown) [Compound 81, N-[1-[3-(5-Chloro-1H-indol-3-yl)propyl]pyrrolidin-3-yl]benzene-sulphonamide] | – | – | – | – | 36% | – | – | – | 60% | 86% | 78% | 75% | 75% | 84% | 109%
